This note sets out measurements from patent US20170304369A1, “METHODS OF DIFFERENTIATING STEM CELLS INTO LIVER CELL LINEAGES” (Agency for Science, Technology and Research, priority 2014, published 2017).

One data set concerns hPSC-derived LB cells. Description: Hepatic progenitor specification from hPSC-derived LB cells (days 7-12), liver gene expression. The procedure: (§1) mTeSR1-grown hPSCs were cultured and differentiated as follows: • a) hPSCs cells were seeded at 1:12 as small clumps using Accutase (Millipore, Cat#SCR005) and Geltrex (Lifetech, Cat#A1413302). • b) Anterior Primitive Streak (day 1) was specified using Activin A (100 ng/ml), CHIR99021 (3 μM), PI-103 (50 nM) and Fgf2 (10 ng/ml) in serumless CDM2 basal medium for 24 hr. • c) Activin A (100 ng/ml) and DM3189 (250 nM) and PI-103 (50 nM) were added in the same basal medium for 24 hr to induce Definitive Endoderm (DE) (day 2). • d) DE was then patterned into PFG by using A83-01 (1 μM), RA (2 μM), BMP4 (30 ng/ml) and Fgf2 (10 ng/ml) in CDM KOSR basal media for another 24 hrs. • e) PFG was further differentiated to LB progenitors using Activin A (100 ng/ml), 8-bromo-CAMP (1 mM) and BMP4 (10 ng/ml) in CDM KOSR basal media for 3 days (day 4 to 6). • f) LB progenitors were treated with BMP4 (10 ng/ml), Oncostatin M (10 ng/ml), Dexamethasone ([…]), DAPT, C59 (1 μM) or RO4919097 (2 μM), forskolin ([…]), human recombinant insulin (10 μg/ml), ascorbic acid-2 phosphate (200 μg/ml), L-gluthathione ([…]) and amino acid concentrate and in IMDM/F12 media for the next 6 days (day 7 to 12) to induce hepatic progenitors. • g) Hepatic progenitors were treated with Dexamethasone (10 μM), RO4929097 (2 μM) or DAPT (10 μM), Forskolin (10 μM), human recombinant insulin (10 μg/ml), ascorbic acid-2 phosphate (200 μg/ml) in IMDM/F12 media for 6 days (day 13 to 18) to generate hepatocyte-like cells. Intra-Splenic Transplantation into FRG^−/− Mice
(§2) RNA was extracted using Zymo RNA extraction kit. RT-quantitative PCR was used to quantify gene expression. Primer sequences were designed by NCBI Primer Tool and primer specificity and linearity was tested before usage for gene expression analyses.
To identify the signals that regulate the progression of the LB progenitors from an ALB- to a more differentiated ALB+ state, multiple signaling pathways were systematically screened for their effects on ALB expression (including FGF, WNT, Notch, HGF, cAMP/PKA, TGFβ, and BMP).

In the next data set the test system is adult human hepatocytes. In words: Adult human primary hepatocytes in vitro culture, liver gene expression after 2 days. The class given is cell-based. The source says:
RNA was extracted using Zymo RNA extraction kit. RT-quantitative PCR was used to quantify gene expression. […]
The signals that promote hepatocyte specification and/or maturation were considered to also ameliorate such loss of liver maturity and gene expression during in vitro culture. Thus, the signaling pathways that appear to be dysregulated were investigated including Notch, TGFb, Wnt, as well as other major signaling pathways including estrogen, BMP, FGF, PKA/cAMP pathways, in order to determine the effects on liver genes after 2 days.

The next data set relates to PFG cells. In words: Liver bud (LB) specification from posterior foregut, days 4-6, gene expression. The class given is cell-based, human. The procedure:
as §1, §2
The signaling pathways, including Retinoic, Nodal/Activin, Bmp, PKA, FGF and Wnt signaling, were explored to determine if they could directly regulate LB specification.

Another data set has as its system hepatic progenitors. In words: Treatment of hepatic progenitors (days 13-18), hepatocyte-like cell, periportal versus perivenous gene expression. Type of data set: cell-based, human. The settings on record: for expression of FAH, PAH, HGD, TAT, CPS1, ARG1, FBA, FBB and FBG: PKG antagonists.
A further data set relates to hPSC-derived DE. Description: Foregut specification: treatment of hPSC-derived DE (day 3), downstream gene expression by RT-qPCR. The class given is cell-based, human. Particulars: for downstream LB gene expression (AFP, CEBPA, TBX3, HNF1B) / expression of MHG markers CDX2 and EVX1: 24 h during foregut specification; for HNF6, PROX1 and HEX expression: Wnt inhibition during foregut specification. An excerpt:
RT-quantitative PCR was used to quantify gene expression. […] During liver development, populations of definitive endoderm cells are first patterned along the anterior-posterior axis to form either the foregut or mid/hindgut. In the present invention the effects of signaling inhibition on the developmental competence of the foregut cells to give rise to the liver bud (LB) cells was examined. Competence is defined as the capacity of one stem cell or progenitor cell to differentiate into its daughter cell type. For example, the posterior foregut is competent when it could give rise to its daughter cell types such as the pancreatic endoderm and LB cells.

Where [1] appears, read: on removal of the component from a cocktail of signaling factors.
Where [2] appears, read: subtraction from BCDEFV cocktail, day 10.
Where [3] appears, read: addition at the LB specification stage.

Entries after “also recorded” stand apart in the source; their conditions may differ.

As for `Nc1ncnc2c1nc(Br)n2[C@@H]1O[C@@H]2COP(=O)(O)O[C@H]2[C@H]1O` [8-bromoCAMP], in the data set on hPSC-derived LB cells (days 9-12), the “expression of functional liver enzymes such as FAH, PAH, HGD, HPD, TAT, CPS1, CYP3A4” value is recorded as “enhances” and the “hepatic progenitor marker ALB expression” value is recorded as “promotes”. In the data set on adult human hepatocytes, the periportal gene expression entry is reported as “promote”; the “perivenous gene expression (e.g. members of the CYP1, CYP2 and CYP3 families)” value was “reducing”. Also, the “expression of cytochrome genes” value with adult human hepatocytes (setting [1]) was “increased”. For the same molecule, in the data set with PFG cells (during LB specification), the “expression of LB markers including AFP, CEBPA, HNF6, HNF1B, PROX1, TBX3 and HNF4A” value was “significantly increase”.
Turning to `CC1=C(/C=C/C(C)=C\C=C\C(C)=C\C(=O)O)C(C)(C)CCC1` [9-Cis-RA, 3,7-Dimethyl-9-(2,6,6-trimethyl-1-cyclohexen-1-yl)nona-2E,4E,6Z,8E-tetraenoic acid], in the data set with hepatic progenitors, the “expression of CYP3A5, CYP3A7, CYP3A4, CYP2D1, CYP2E1, and CYP1A1” value is recorded as “enhance”; the “expression of periportal genes such as ARG1, OTC, ASL1 and CPS1” value is “reduces”.
As for `CC(=N)NCc1cccc(CN)c1.Cl.Cl` [1400 W dihydrochloride, N-[[3-(Aminomethyl)phenyl]methyl]-ethanimidamide dihydrochloride], the “expression of FAH, PAH, HGD, TAT, CPS1, ARG1, FBA, FBB and FBG” value in the data set on hepatic progenitors is reported as “upregulate”.
On to `Cc1cc(-c2ccc(CC(=O)Nc3ccc(-c4cccnc4)cc3)cc2)ccn1` [C59, 2-(4-(2-methylpyridin-4-yl)phenyl)-N-(4-(pyridin-3-yl)phenyl)acetamide], for which, in the data set with hPSC-derived DE, the “downstream LB gene expression (AFP, CEBPA, TBX3, HNF1B)” value (shortened to “downstream LB gene expression”) is given as “severely reduces”; the “expression of MHG markers CDX2 and EVX1” value is “reduces”; the “HNF6, PROX1 and HEX expression” value is “upregulated”. Moreover, the “expression of ALB, CYP3A7” value with hepatic progenitors is on record as “promotes”.
Consider `Cc1cnc(-c2cnc(NCCNc3ccc(C#N)cn3)nc2-c2ccc(Cl)cc2Cl)[nH]1` [CHIR99201, 6-[[2-[[4-(2,4-dichlorophenyl)-5-(5-methyl-1H-imidazol-2-yl)-2pyrimidinyl]amino]ethyl]amino]-3-pyridinecarbonitrile], for which, in the data set with hPSC-derived LB cells (setting [2]), the ALB expression entry was “inhibits”. Also, in the data set with adult human hepatocytes (setting [1]), the “GLT and GS expression” value is given as “decrease”; the “expression of periportal genes like ARG1, SERDH, CPS1” value is “increased”. The “expansion and self-renewal of LB progenitors” value in the data set with PFG cells is given as “enhance”. In the data set with PFG cells (setting [3]), the LB gene expression result is “higher” and the expansion result was “promotes”.
As to `Cc1ccc2nc(NC(=O)CSc3nc4c(c(=O)n3-c3ccccc3)SCC4)sc2c1` [IWP2, N-(6-Methyl-2-benzothiazolyl)-2-[(3,4,6,7-tetrahydro-4-oxo-3-phenylthieno[3,2-d]pyrimidin-2-yl)thio]-acetamide], in the data set on hPSC-derived DE, the “downstream LB gene expression” value was “severely reduces”; the “expression of MHG markers CDX2 and EVX1” value was “reduces”; the “HNF6, PROX1 and HEX expression” value is given as “upregulated”.
On to `COC(=O)[C@@]1(OC)C[C@H]2O[C@]1(C)n1c3ccccc3c3c4c(c5c6ccccc6n2c5c31)C(=O)N(C)C4` [KT5823, (9S,10R,12R)-2,3,9,10,11,12-Hexahydro-10-methoxy-2,9-dimethyl-1-oxo-9,12-epoxy-1H-diindolo[1,2,3-fg:3′,2′,1′-kl]pyrrolo[3,4-i][1,6]benzodiazocine-10-carboxylic acid, methyl ester], for which, in the data set with hepatic progenitors, the “expression of FAH, PAH, HGD, TAT, CPS1, ARG1, FBA, FBB and FBG” value is on record as “upregulate”.
`Cc1cccc(-c2[nH]c(C(C)(C)C)nc2-c2ccc3c(c2)OCO3)n1` [SB505124, 2-[4-(1,3-Benzodioxol-5-yl)-2-(1,1-dimethylethyl)-1H-imidazol-5-yl]-6-methyl-pyridine]: in the data set on hPSC-derived LB cells, the “competence of hepatic progenitors to generate hepatocyte-like cells” value was “reduces”; the “expression of liver genes such as ALB, CYP3A4, CPS1, FAH, TAT, PAH, HGD, HPD and MAI” value is listed as “lower”. The “later functional liver gene expression of TAT, FAH, PAH, HGD, HPD, and MAI” value in the data set with hPSC-derived LB cells (brief treatment on days 7-8) was “higher”. Further, in the data set with adult human hepatocytes, the “effect on the cytochrome expression compared with A83-01” value is listed as “stronger”; the “expression of CYP1A1, CYP1A2, CYP2C19, CYP2C9, CYP3A4, CYP3A5, CYP3A7 and CYP7A1” value is listed as “increased”. Further, in the data set with PFG cells (treatment during LB specification, then hepatic specification medium), the “subsequent expression of ALB” value is “reduces”.
Turning to Activin: activator of TGFβ signaling, the periportal genes entry in the data set with hepatic progenitors is on record as “downregulation”. Moreover, the “later expression of ALB in subsequent differentiation” value with PFG cells (10 ng/ml during LB specification) is reported as “increases”. For the same molecule, in the data set on PFG cells (day 4 to 6), the “HNF4A, HNF1A, and TBX3 levels” value was “increases”; the “LB expression (AFP and CEBPA)” value is recorded as “reduces”. Moreover, in the data set on PFG cells (increasing the dose), the LB marker expression result is on record as “seems to reduce”. For the same molecule, the “expression of ALB on day 13” value with PFG cells (treatment during LB specification (days 4-6)) was “enhances”.
As for “DKK1: Dickkopf 1, inhibitor of Wnt signaling”, in the data set on hPSC-derived DE, the “downstream LB gene expression” value is “severely reduces”; the “expression of MHG markers CDX2 and EVX1” value is recorded as “reduces”; the “HNF6, PROX1 and HEX expression” value is listed as “upregulated”. The “expression of ALB, CYP3A7” value in the data set on hepatic progenitors is on record as “promotes”.
Regarding FGF2: activator of FGF signaling, the “subsequent liver bud gene expression of CEBPA, HNF1A, HNF6, PROX1” value in the data set with hPSC-derived DE (provided to DE cells during foregut specification) is reported as “increase”. Also, in the data set on hPSC-derived LB cells (20 ng/ml), the ALB expression result is on record as “reduction” and the SOX9 expression result is “slightly increase”. Further, in the data set on hPSC-derived LB cells (setting [2]), the ALB expression result is reported as “inhibits”. In addition, in the data set with PFG cells, the “expansion and self-renewal of LB progenitors” value is listed as “enhance”. Also, the “LB gene expression of HNF1A, HNF6, PROX1, TBX3, HNF4A, AFP, CEBPA, HNF1B” value with PFG cells (addition in CDM KOSR base media) was “did not benefit”.
For “human recombinant insulin: activator of insulin signaling”, the “expression of ALB, CPS1 and CYP3A4” value in the data set with hPSC-derived LB cells was “strongly enhanced”. In the data set on hPSC-derived LB cells (days 7 to 12), the “expression of PAH, HGD, HPD, TAT, MAI, and FAH” value is on record as “significantly increases”. Moreover, the “tyrosine metabolic genes and xenobiotic metabolic genes such as CYP3A4” value with hepatic progenitors was “continues to enhance”.

B1: BMP4: activator of BMP signaling (protein, UniProt P12644 293-408, looked up)
Bone morphogenetic protein 4: SPKHHSQRARKKNKNCRRHSLYVDFSDVGWNDWIVAPPGYQAFYCHGDCPFPLADHLNSTNHAIVQTLVNSVNSSIPKACCVPTELSAISMLYLDEYDKVVLKNYQEMVVEGCGCR
Turning to B1, the “competence to generate LB cells” value with hPSC-derived DE (treatment during foregut specification) was “mildly enhanced”. Also, in the data set on hPSC-derived LB cells (added to hPSC-derived LB cells), the ALB expression result is on record as “promote; also recorded: increased”. Besides, in the data set with PFG cells, the LB specification result is recorded as “promotes”; the “dose that maximally induces expression of LB genes (HNF4A, PROX1, AFP, TBX3, HNF1B, HNF1A, HNF6, CEBPA)” value lay in the range of 30 to 40 ng/mL; the pancreatic specification entry is on record as “inhibited”.
